Experimental data: patent publication US20060029563A1, “Cutanceous metabolic bio-activator” (Jean-Noel Thorel, priority 2002, published 2006)
Where a SMILES comes first, the peptide text is derived from it. [ ]: non-standard residue; d: D form. Cit = NC(=O)NCCC[C@H](N)C(=O)O

Assays:
[1] = tested on: secretion of endothelin-1 by normal human keratinocytes; assay: endothelin-1 secretion by keratinocytes (ELISA), nonirradiated or after UV B irradiation; type: cell-based; conditions: for increase in the basal secretion of endothelin-1 compared with the water control: nonirradiated
Method: The trial is carried out on an in vitro culture of normal human keratinocytes seeded at a density of 10^5 cells/well in 6-well plates.
The keratinocytes, seeded in 6-well plates at a density of 10^5 cells/well, are cultured in standard medium (Epilife Sigma) for 48 h. Before irradiation, the culture medium is removed, the cells are rinsed with PBS buffer, and 1 ml thereof is left in contact with the cells for the irradiation. The keratinocytes are subjected to a UV B irradiation (312 nm) of 20 mJ/cm^2. An identical nonirradiated condition is realized in parallel.
After irradiation (and on the nonirradiated parallel), the PBS is removed and the cells are placed under the various conditions studied: • control of water in the culture medium, […]
Each condition is realized in triplicate.
After contact for 24 h or 48 h after irradiation, the conditioned culture supernatants are recovered. The amount of endothelin-1 secreted by the keratinocytes is measured on 100 μl of supernatant by means of an ELISA technique (R&D Systems, Abingdon, UK). The endothelin-1 levels are calculated by means of the standard curve prepared with synthesized human endothelin-1. The results are expressed in pg of endothelin-1 standardized with respect to the protein concentration (pg ET-1/mg of proteins).

HaCaT cells = assay: growth of HaCaT cells, WST-1 conversion method; type: cell-based, human
Method: The objective of this trial is to evaluate the effect of the combination ATP+peptides, added to a culture medium, on the growth of an immortalized line of human […], HaCaT cells.
The study is carried out on a culture prepared in the standard culture medium for HaCaT cells, DMEM (Sigma) in the presence of fetal calf serum (SVF) at 2 or 10%.
The HaCaT cells are seeded at low density in a 96-well plate in the standard medium (DMEM+10% SVF) and grow for 24 h after seeding in this medium.
On the 2nd day, the cells are placed under the various conditions studied.
The test concentrations in terms of ATP, β-alanyl-L- histidine (Carnosine) and L-citrullyl-L-arginine (exsy- algine) are determined subsequent to preliminary cytotoxicity studies.
The following conditions are prepared: • A control condition: culture medium alone+SVF • A condition consisting of β-alanyl-L-histidine alone at 0.5%. • A condition consisting of L-citrullyl-L-arginine are known at 0.5%. • A condition consisting of ATP alone at 1 μg/ml. • A condition consisting of ATP (1 μg/ml)+β-alanyl-L-histidine (0.5%). • A condition consisting of ATP (1 μg/ml)+L-citrullyl-L-arginine (0.5%) • A condition consisting of ATP (1 μg/ml)+β-alanyl-L-histidine (0.5%)+L- citrullyl-L-arginine (0.5%).
These various conditions are prepared both in the DMEM containing 2% SVF and the DMEM containing 10% SVF.
Each condition is prepared in triplicate. The media are not renewed in the course of the experiment.
The cell density is evaluated 24 h after seeding of the cells, before the cells are brought into contact with the various study conditions (=T0), and the growth of the HaCaT cells is then evaluated on the 2nd, 5th and 7th days of culture by means of the WST-1 conversion method (reading at 450 nm).
The cell growth is objectified by measuring the cell viability at various times of the experiment. The results obtained give the percentage cell viability calculated with respect to the initial cell density at T0, for which it is estimated that the cell density is equal to 100%. The effects of the various products on cell growth are analyzed at the various times of the experiment, relative to the nontreated control at the same time of the experiment.

normal human melanocytes = assay: comet assay on UVA-irradiated normal human melanocytes; type: cell-based; conditions: 4 mM each
Method: Cultures of normal human melanocytes (MHNs) are prepared from fore skins of infants and of newborns suffering from phimosis. The melanocytes obtained from skin fragments are placed in MCDB 153 medium (Sigma St Louis, Mo., USA) supplemented with 30 μg/ml of bovine pituitary extract (BPE) (Life Technologies, Paisley, England), 2% of fetal calf serum (SVF) (Dominique Dutscher, Brumath, France), 16 nM of phorbol-12-myristate-13-acetate (Sigma), 5 μg/ml of insulin and 1.1 μM of hydrocortisone (Sigma). The cultures are maintained in an incubator at 37° C. and-in-an atmosphere containing 5% CO2. Pure cultures of melanocytes are obtained after 2 to 3 weeks.
All the compositions tested are solubilized in DMSO at the maximum concentrations permitted. Preliminary trials are carried out in order to determine the subtoxic concentrations on the keratinocytes. The final concentration of DMSO is always less than 2%.
The melanocytes are brought into contact with the product for 30 min at 37° C., and are then irradiated with UVA radiation. The UVA irradiations are generated by means of a Bio-Sun UV-irradiator (Vilbert Lourmat, Marne la Vallée). This device is equipped with monochromatic lamps that emit a wavelength of 312 nm and/or 365 nm. The lamps deliver a calculated energy by means of an RMW-365/312 radiometer. The energies delivered are 0.8 J/cm^2 for the UVA range. The “comet” assay is carried out immediately after exposure. Two types of controls are included in these experiments: • negative controls: melanocytes that are not treated but […]; melanocytes treated for 30 min with the composition tested, but not irradiated. • Positive control: melanocytes that are not treated but are irradiated.
After treatment with a typsin/EDTA mixture (0.05%/0.02%) for 2 to 3 minutes, the cultures are 15 recovered by centrifugation and placed in PBS buffer without Ca++ and without Mg++ (Sigma). Following a second centrifugation, the cells (4.5-5.0×10^4 cells) are suspended in 0.5% low melting point (LMP) agarose (Sigma). The mixture is directly deposited onto microscope slides coated with a prelayer of agarose (1.6%) dried overnight at ambient temperature and freshly precoated with a second layer of agarose (0.8%).
The protocol for the comet assay is that of De Meo et al., incorporating the “dry slide” technique. After the irradiations, the slides are placed in a lysis bath (2.5 M NaCl, 100 mM Na2EDTA, 10 mM Tris-HCl, pH 10, 1% of sodium sarcosinate, 1% of triton X-100 and 10% of DMSO). The cell lysis is performed at 4° C. for 60 minutes, followed by denaturation of the DNA at ambient temperature for 20 min in a strongly alkaline solution (1 mM Na2EDTA and 300 mM NaOH, pH>13.0). After electrophoresis (25 V, 300 mA) for 20 min., the slides are neutralized with the Tris-HCl buffer (0.4 M; pH 7.4) and dehydrated in absolute ethanol or methanol.
The slides are stained with ethidium bromide solution (75 μl of 2 μg/ml) and observed using a BH2-RFL fluorescence microscope (Olympus, Japan) equipped with a 20BG-W dichroic filter (excitation: 515-560 nm; emission: 590 nm) and with an Apo D-Plan 20× objective. The image analysis is carried out with a high sensitivity monochrome CCD camera (Cohu 4912-5000) coupled to a Matrox IP-8 acquisition board. The entire assembly is controlled by means of the Fenestra Komet software (Kinetic Imaging, Liverpool, UK, version 3.1).
A total of 100 cells per sample (50 cells/slide) is analyzed. The parameter used is “tail DNA”, which is defined as the percentage of DNA in the tail of the “comet”. For each series of experiments, a negative control (nonirradiated cells) and a positive control (irradiated cells without composition tested) are included.
Nonlinear regressions based on a χ^2 function are calculated directly from the TM (tail moment) distribution frequencies for each sample. Specifically, Bauer et al. have recently shown that these distributions follow a χ^2 function. […]

[2] = prior cell viability test on normal human keratinocytes; type: cell-based; conditions: after 48 h of contact, highest 2 concentrations, 0.0001% and 0.01%
Method: In order to determine the concentrations applicable in the context of the trial, a prior cell viability test is carried out on normal human keratinocytes.
L-citrullyl-L-arginine is dissolved in water and the final concentration is fixed at 0.1%.
6 dilutions of L-citrullyl-L-arginine from 10^−4% to 10^−2% are brought into contact with the cells for 24 h and 48 h. A “water” condition is realized as a control.
For the trial, the L-citrullyl-L-arginine will be tested at the highest 2 concentrations that allow the cell viability to be maintained at a level greater than 80%, after 48 h of contact, i.e. 0.0001% and 0.01%.

[3] = NI: nonirradiated melanocytes pretreated 30 min
[4] = melanocytes irradiated with UVA (0.8 J/cm^2), pretreated 30 min

## Nc1ncnc2c1ncn2[C@@H]1O[C@H](COP(=O)(O)OP(=O)(O)OP(=O)(O)O)[C@@H](O)[C@H]1O [ATP, adenosine triphosphate]
[1]; ATP alone
  effect on endothelin-1 synthesis (in words): do not show any effect
HaCaT cells; ATP alone, after 2 to 5 days of contact
  change in cell viability: −5 to −10%
HaCaT cells; after 2 days of culture, ATP 1 μg/ml
  effect on cell viability (in words): substantially decreases cell viability
HaCaT cells; after 5 days of culture
  effect on cell viability / growth (in words): substantially decreases cell viability
Normal human melanocytes; [3]
  OTM-χ^2: 2.08 ± 0.02
Normal human melanocytes; [4]
  Degree of protection (%): 14.6%
  OTM-χ^2: 6.31 ± 0.38

## N=C(N)NCCC[C@H](NC(=O)[C@@H](N)CCCNC(N)=O)C(=O)O [L-citrullyl-L-arginine] (H-[Cit]-Arg-OH)
[1]; 0.01%, conclusion
  effect on the secretion of endothelin-1 (in words): considerable activating effect
[1]; UV B 20 mJ/cm^2, 24 h, 0.0001%
  increase in secretion of endothelin-1 compared with the irradiated water control: 6%
[1]; UV B 20 mJ/cm^2, 24 h, 0.001%
  increase in secretion of endothelin-1 compared with the irradiated water control: 28%
[1]; UV B 20 mJ/cm^2, 48 h, 0.0001%
  increase in secretion of endothelin-1 compared with the irradiated water control: 4%
[1]; UV B 20 mJ/cm^2, 48 h, 0.01%
  increase in secretion of endothelin-1 compared with the irradiated water control: 63%
[1]; 24 h, 0.0001%
  increase in the basal secretion of endothelin-1 compared with the water control: 20%
[1]; 24 h, 0.01%
  increase in the basal secretion of endothelin-1 compared with the water control: 70%
[1]; 48 h, 0.0001%
  increase in the basal secretion of endothelin-1 compared with the water control: 26%
[1]; 48 h, 0.01%
  increase in the basal secretion of endothelin-1 compared with the water control: 82%
HaCaT cells; after 2 days of culture, 0.1% and 0.5%
  cell growth relative to the nontreated control: +5%
HaCaT cells; after 5 days of culture
  effect on cell viability / growth (in words): does not stimulate cell growth
Normal human melanocytes; [3]
  OTM-χ^2: 2.06 ± 0.02
Normal human melanocytes; [4]
  Degree of protection (%): 67.7%
  OTM-χ^2: 2.22 ± 0.20
[2]
  viability at 48 h: > 80%

## NCCC(=O)N[C@@H](Cc1c[nH]cn1)C(=O)O [β-alanyl-L-histidine]
HaCaT cells; after 2 days of culture, 0.1%
  effect on cell growth (in words): no effect on growth
HaCaT cells; after 2 days of culture, 0.5%, 2% SVF
  cell growth relative to the nontreated control: +22%
HaCaT cells; after 5 days of culture, 0.5%
  cell growth relative to the nontreated control: +12%
HaCaT cells; conclusion of the trial, at the concentrations tested
  effect on cell viability / growth (in words), conclusion: exerts a stimulatory effect on cell growth
